What all share (assay type): cell-based
Assay [1] addresses Mer (phospho-Mer, MERTK-transfected 293A cells) (Homo sapiens (Human), UniProt Q12866). In words: Mer autophosphorylation ELISA in transient transfected 293A cells (Example H). The settings on record: cellular activity; Mer autophosphorylation ELISA in transient transfected 293A cells. The procedure, abridged: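 IC50 from 4-parameter logistic fit of phospho-Mer levels, quantified by ELISA against a phospho-Mer standard in lysates of MERTK-transfected 293A cells. Cells exposed 1 h to 8-point serial dilutions, serum-free, 0.3% DMSO; controls: DMSO (100%) and reference inhibitor (0%).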
A general note: An ELISA detects its analyte on a solid surface through an enzyme-linked reagent.

Assay [2] concerns the target KDR (phospho-KDR, VEGF165-stimulated HUVEC cells) (Homo sapiens (Human), UniProt P35968). In words: KDR autophosphorylation ELISA in HUVEC cells (Example G). Conditions: cellular activity; KDR autophosphorylation ELISA in HUVEC cells. The method, boiled down:
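Read-out: phospho-KDR in cell lysates by DuoSet IC ELISA, normalised between VEGF-stimulated DMSO wells (100%) and unstimulated wells (0%). Human endothelial cells were starved overnight in serum-free medium, exposed to compound for 1 h, and then pulsed with 100 ng/mL VEGF165 for 5 min.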

Assay [3] addresses AXL (phospho-AXL, Gas6-stimulated A-172 glioblastoma cells) (Homo sapiens (Human), UniProt P30530). In words: AXL autophosphorylation ELISA in A-172 cells (Example E). Conditions: cellular activity; AXL autophosphorylation ELISA in A-172 cells; read-out: Axl IC50. The method, boiled down: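 Phospho-AXL was measured by ELISA in lysates of Gas6-stimulated A-172 cells, starved 24 h in serum-free medium and exposed 1 h to an 8-point compound dilution at 0.3% DMSO.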

Assay [4] deals with Met (phospho-Met, HGF-stimulated PC-3 prostate cancer cells) (Homo sapiens (Human), UniProt P08581). In words: Met autophosphorylation ELISA in PC-3 cells (Example F). The settings on record: cellular activity; Met autophosphorylation ELISA in PC-3 cells; read-out: c-Met IC50. The method, boiled down:
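Serum-starved (3 h) PC-3 cells were treated 1 h with compounds (8-point curve, 0.3% DMSO), then stimulated with 100 ng/mL human HGF for 10 min. Lysate phospho-Met (panTyr) was measured by sandwich ELISA, normalised to DMSO and reference-inhibitor controls. IC50 came from 4-parameter logistic fit.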

Each structure is given as a SMILES string. Where only a bound is given, the exact number is not on record here.

Sequence of KDR (phospho-KDR, VEGF165-stimulated HUVEC cells) (P35968 20-1356): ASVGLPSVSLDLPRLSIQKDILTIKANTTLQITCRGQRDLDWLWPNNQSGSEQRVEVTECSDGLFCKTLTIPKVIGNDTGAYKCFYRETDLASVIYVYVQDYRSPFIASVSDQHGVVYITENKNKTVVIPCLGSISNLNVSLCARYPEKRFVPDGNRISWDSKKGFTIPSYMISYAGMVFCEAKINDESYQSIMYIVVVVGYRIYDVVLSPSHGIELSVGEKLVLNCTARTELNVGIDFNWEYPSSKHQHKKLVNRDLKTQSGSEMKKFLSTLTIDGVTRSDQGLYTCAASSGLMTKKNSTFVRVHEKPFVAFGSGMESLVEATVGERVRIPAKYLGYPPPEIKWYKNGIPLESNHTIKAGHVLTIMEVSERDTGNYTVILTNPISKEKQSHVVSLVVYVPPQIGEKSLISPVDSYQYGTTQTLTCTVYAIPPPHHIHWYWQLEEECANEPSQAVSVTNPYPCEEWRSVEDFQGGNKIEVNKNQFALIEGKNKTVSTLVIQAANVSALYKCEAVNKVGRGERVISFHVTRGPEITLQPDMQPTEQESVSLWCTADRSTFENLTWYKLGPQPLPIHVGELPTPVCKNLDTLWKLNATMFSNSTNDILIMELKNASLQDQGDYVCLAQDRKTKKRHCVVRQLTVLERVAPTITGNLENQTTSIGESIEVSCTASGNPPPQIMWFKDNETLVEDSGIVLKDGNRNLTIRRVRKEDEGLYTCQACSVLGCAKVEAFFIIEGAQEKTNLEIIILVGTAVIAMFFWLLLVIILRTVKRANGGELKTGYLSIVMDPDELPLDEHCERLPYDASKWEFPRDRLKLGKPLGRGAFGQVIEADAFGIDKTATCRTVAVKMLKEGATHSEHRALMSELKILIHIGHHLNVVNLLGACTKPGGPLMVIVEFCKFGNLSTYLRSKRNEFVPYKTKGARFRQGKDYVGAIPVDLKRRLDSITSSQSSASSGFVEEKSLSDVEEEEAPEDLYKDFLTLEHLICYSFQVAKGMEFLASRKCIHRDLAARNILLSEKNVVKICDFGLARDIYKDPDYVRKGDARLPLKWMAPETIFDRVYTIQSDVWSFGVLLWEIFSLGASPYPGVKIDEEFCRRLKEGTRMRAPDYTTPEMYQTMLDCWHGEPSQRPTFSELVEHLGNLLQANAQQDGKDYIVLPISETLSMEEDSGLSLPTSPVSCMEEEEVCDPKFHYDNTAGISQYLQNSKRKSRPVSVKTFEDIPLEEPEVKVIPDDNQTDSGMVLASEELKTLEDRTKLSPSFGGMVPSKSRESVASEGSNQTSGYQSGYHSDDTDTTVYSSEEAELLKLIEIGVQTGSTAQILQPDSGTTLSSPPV
Sequence of AXL (phospho-AXL, Gas6-stimulated A-172 glioblastoma cells) (P30530 26-894): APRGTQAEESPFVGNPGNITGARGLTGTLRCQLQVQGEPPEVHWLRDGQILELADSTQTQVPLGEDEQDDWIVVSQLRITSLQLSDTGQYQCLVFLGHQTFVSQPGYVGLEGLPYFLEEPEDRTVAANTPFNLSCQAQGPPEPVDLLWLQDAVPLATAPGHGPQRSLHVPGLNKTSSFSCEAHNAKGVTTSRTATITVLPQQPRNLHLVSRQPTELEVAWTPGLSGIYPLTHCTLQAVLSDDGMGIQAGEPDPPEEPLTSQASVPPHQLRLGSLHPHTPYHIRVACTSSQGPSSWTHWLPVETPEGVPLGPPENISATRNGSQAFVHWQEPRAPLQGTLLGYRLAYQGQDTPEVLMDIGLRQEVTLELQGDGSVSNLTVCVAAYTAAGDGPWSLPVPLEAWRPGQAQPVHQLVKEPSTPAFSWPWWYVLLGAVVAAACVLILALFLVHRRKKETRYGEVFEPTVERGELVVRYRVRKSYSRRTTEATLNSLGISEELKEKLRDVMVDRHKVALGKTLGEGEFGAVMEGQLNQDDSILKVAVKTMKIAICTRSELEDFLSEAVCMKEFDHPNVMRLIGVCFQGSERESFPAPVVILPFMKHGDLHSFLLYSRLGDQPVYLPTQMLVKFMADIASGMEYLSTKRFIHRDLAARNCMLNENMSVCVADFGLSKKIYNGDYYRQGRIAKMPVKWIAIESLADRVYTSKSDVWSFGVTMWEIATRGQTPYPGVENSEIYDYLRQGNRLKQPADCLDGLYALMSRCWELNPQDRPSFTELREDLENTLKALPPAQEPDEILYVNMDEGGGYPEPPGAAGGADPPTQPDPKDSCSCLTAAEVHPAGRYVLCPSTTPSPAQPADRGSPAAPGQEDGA
Sequence of Mer (phospho-Mer, MERTK-transfected 293A cells) (Q12866 21-999): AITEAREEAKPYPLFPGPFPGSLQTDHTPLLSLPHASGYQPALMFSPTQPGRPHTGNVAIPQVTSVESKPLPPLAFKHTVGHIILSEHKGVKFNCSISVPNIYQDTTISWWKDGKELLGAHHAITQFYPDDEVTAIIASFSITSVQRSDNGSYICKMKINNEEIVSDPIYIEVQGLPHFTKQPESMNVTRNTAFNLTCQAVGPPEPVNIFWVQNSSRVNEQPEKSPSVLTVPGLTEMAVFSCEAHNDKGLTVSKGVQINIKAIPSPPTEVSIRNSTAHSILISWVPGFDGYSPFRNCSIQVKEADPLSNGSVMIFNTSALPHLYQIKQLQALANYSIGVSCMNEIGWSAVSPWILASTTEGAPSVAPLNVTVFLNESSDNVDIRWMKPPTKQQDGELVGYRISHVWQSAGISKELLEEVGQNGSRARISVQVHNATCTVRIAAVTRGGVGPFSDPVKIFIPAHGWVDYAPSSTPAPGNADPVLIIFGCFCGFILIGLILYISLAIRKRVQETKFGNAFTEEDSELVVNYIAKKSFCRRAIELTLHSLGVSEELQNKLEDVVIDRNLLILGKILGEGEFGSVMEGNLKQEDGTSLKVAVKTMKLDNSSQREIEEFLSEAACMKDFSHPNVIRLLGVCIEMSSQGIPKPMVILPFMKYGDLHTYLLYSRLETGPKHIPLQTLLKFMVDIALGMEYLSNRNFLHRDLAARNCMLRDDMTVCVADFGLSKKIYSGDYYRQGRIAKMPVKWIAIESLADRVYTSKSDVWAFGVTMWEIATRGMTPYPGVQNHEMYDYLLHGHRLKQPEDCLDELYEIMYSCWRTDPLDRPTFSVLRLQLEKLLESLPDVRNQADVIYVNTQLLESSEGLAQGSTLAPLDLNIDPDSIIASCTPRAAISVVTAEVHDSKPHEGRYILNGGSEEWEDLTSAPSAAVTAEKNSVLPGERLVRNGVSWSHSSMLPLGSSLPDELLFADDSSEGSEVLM
Sequence of Met (phospho-Met, HGF-stimulated PC-3 prostate cancer cells) (P08581 25-1390): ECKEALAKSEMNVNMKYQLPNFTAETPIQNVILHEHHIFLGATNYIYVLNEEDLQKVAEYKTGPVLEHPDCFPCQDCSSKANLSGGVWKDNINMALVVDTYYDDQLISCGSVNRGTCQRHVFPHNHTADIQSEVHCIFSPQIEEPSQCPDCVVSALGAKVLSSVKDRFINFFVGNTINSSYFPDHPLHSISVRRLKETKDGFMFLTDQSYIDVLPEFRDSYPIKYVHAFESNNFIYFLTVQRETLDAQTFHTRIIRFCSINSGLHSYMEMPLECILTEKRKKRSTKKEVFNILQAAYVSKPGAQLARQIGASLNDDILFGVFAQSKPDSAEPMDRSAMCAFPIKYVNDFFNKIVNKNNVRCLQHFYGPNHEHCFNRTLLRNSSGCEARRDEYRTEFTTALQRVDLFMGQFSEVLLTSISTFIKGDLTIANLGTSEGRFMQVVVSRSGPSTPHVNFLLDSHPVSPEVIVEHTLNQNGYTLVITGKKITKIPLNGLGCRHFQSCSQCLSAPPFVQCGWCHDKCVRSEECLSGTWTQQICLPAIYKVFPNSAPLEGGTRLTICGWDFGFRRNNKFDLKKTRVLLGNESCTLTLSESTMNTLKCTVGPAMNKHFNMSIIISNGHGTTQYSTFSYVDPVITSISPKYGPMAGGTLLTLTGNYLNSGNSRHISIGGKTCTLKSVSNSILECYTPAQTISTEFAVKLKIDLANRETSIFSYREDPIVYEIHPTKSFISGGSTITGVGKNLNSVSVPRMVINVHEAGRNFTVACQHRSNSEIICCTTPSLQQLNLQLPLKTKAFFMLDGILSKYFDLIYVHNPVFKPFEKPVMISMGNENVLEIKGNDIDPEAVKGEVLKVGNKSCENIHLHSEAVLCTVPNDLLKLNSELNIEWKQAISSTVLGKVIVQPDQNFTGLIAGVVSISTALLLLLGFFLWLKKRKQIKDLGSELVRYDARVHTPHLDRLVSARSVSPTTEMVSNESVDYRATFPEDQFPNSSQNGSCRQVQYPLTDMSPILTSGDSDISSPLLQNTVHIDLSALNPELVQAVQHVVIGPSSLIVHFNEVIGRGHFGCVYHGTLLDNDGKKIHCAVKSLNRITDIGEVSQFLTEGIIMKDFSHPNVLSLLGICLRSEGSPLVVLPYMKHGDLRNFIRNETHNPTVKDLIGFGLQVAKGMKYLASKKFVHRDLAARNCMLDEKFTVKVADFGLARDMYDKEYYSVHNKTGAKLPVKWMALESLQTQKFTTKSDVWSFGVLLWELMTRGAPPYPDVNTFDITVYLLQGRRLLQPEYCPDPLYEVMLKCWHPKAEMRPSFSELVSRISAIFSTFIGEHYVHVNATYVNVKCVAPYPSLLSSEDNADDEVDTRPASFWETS

In general, IC50 refers to the midpoint of a concentration-inhibition curve. Regarding `COc1cc2nccc(Oc3ccc(NC(=O)c4c(OC)c(C(C)=O)cn(-c5ccc(F)cc5)c4=O)cc3)c2nc1OC` [Compound 753, 5-acetyl-N-[4-[(6,7-dimethoxy-1,5-naphthyridin-4-yl)oxy]phenyl]-1-(4-fluorophenyl)-4-methoxy-2-oxopyridine-3-carboxamide], the IC50 in assay [1] is below 100 nM; in assay [2] it was above 300 nM; in assay [3], below 100 nM; in assay [4], below 100 nM.
In the case of `COCc1cnn(-c2ccc(F)cc2)c(=O)c1C(=O)Nc1ccc(Oc2ccnc3cc(OC)c(OC)nc23)cc1` [Compound 537, N-[4-[(6,7-dimethoxy-1,5-naphthyridin-4-yl)oxy]phenyl]-2-(4-fluorophenyl)-5-(methoxymethyl)-3-oxopyridazine-4-carboxamide], the half-inhibitory concentration (IC50) in assay [1], in assay [2], in assay [3] and in assay [4] was below 100 nM each time.
On to `COc1cnc2c(Oc3cc(F)c(NC(=O)c4c(C)nc(C)c(-c5ccc(F)cc5C)c4O)cc3F)ccnc2c1` [Compound 751, N-[2,5-difluoro-4-[(7-methoxy-1,5-naphthyridin-4-yl)oxy]phenyl]-5-(4-fluoro-2-methylphenyl)-4-hydroxy-2,6-dimethylpyridine-3-carboxamide], for which the IC50 in assay [1], in assay [2], in assay [3] and in assay [4] was below 100 nM throughout.
As for `CCOc1nc2c(Oc3ccc(NC(=O)c4cnc(C)c(-c5ccc(F)cc5C)c4O)cc3)ccnc2cc1OC` [Compound 673, N-[4-[(6-ethoxy-7-methoxy-1,5-naphthyridin-4-yl)oxy]phenyl]-5-(4-fluoro-2-methylphenyl)-4-hydroxy-6-methylpyridine-3-carboxamide], the IC50 in assay [1], in assay [2], in assay [3] and in assay [4] was below 100 nM throughout.
Turning to `CNC(=O)c1cc2nccc(Oc3cc(F)c(NC(=O)c4c(C)nc(C)c(-c5ccc(F)cc5C)c4O)cc3F)c2cc1C` [Compound 752, 4-[2,5-difluoro-4-[[5-(4-fluoro-2-methylphenyl)-4-hydroxy-2,6-dimethylpyridine-3-carbonyl]amino]phenoxy]-N,6-dimethylquinoline-7-carboxamide], the IC50 in assay [1], in assay [2], in assay [3] and in assay [4] was below 100 nM each time.
For the compound `COc1cc2nccc(Oc3ccc(NC(=O)c4c(C)n(CC(F)F)cc(-c5ccc(F)cc5)c4=O)cc3F)c2nc1OC` [Compound 702, 1-(2,2-difluoroethyl)-N-[4-[(6,7-dimethoxy-1,5-naphthyridin-4-yl)oxy]-3-fluorophenyl]-5-(4-fluorophenyl)-2-methyl-4-oxopyridine-3-carboxamide], the IC50 is below 100 nM in assay [1], 100 to 300 nM in assay [2], below 100 nM in assay [3] and below 100 nM in assay [4].
Regarding `COc1cc2nccc(Oc3ccc(NC(=O)c4c(C)c(C(N)=O)c(C)n(-c5ccc(F)cc5)c4=O)cc3)c2nc1OC` [Compound 319, 5-N-[4-[(6,7-Dimethoxy-1,5-naphthyridin-4-yl)oxy]phenyl]-1-(4-fluorophenyl)-2,4-dimethyl-6-oxopyridine-3,5-dicarboxamide], the IC50 in assay [1] was below 100 nM; in assay [2], above 300 nM; in assay [3], below 100 nM; in assay [4], below 100 nM.
As for `COc1cc2nccc(Oc3ccc(NC(=O)c4c(C)c(F)c(C)n(-c5ccc(F)cc5)c4=O)cc3F)c2nc1OC` [Compound 324, N-[4-[(6,7-Dimethoxy-1,5-naphthyridin-4-yl)oxy]-3-fluorophenyl]-5-fluoro-1-(4-fluorophenyl)-4,6-dimethyl-2-oxopyridine-3-carboxamide], the IC50 in assay [1], in assay [2], in assay [3] and in assay [4] was below 100 nM each time.
As for `COc1cnc2c(Oc3ccc(NC(=O)c4c5n(c(C)c(-c6ccc(F)cc6C)c4=O)CCOC5)cc3F)ccnc2c1` [Compound 784, N-[3-fluoro-4-[(7-methoxy-1,5-naphthyridin-4-yl)oxy]phenyl]-7-(4-fluoro-2-methylphenyl)-6-methyl-8-oxo-3,4-dihydro-1H-pyrido[2,1-c][1,4]oxazine-9-carboxamide], the IC50 in assay [1] was below 100 nM; in assay [2], above 300 nM; in assay [3], below 100 nM; in assay [4], below 100 nM.
With `COc1cnc2c(Oc3ccc(NC(=O)c4cn(CC(F)F)c(C)c(-c5ccc(F)cc5C)c4=O)cc3)ccnc2c1` [Compound 731, 1-(2,2-difluoroethyl)-5-(4-fluoro-2-methylphenyl)-N-[4-[(7-methoxy-1,5-naphthyridin-4-yl)oxy]phenyl]-6-methyl-4-oxopyridine-3-carboxamide], the IC50 in assay [1] is below 100 nM; in assay [2], above 300 nM; in assay [3] it was below 100 nM; in assay [4], below 100 nM.
Turning to `COCCOc1cnc2c(Oc3ccc(NC(=O)c4c(C)nc(C)c(-c5ccc(F)cc5C)c4O)cc3F)ccnc2c1` [Compound 683, N-[3-fluoro-4-[[7-(2-methoxyethoxy)-1,5-naphthyridin-4-yl]oxy]phenyl]-5-(4-fluoro-2-methylphenyl)-4-hydroxy-2,6-dimethylpyridine-3-carboxamide], the half-inhibitory concentration (IC50) in assay [1], in assay [2], in assay [3] and in assay [4] was below 100 nM throughout.
With `COc1cc2nccc(Oc3cc(F)c(NC(=O)c4c(C)n(C)c(C)c(-c5ccc(F)cc5)c4=O)cc3F)c2nc1OC` [Compound 769, N-[4-[(6,7-dimethoxy-1,5-naphthyridin-4-yl)oxy]-2,5-difluorophenyl]-5-(4-fluorophenyl)-1,2,6-trimethyl-4-oxopyridine-3-carboxamide], the IC50 in assay [1] is below 100 nM; in assay [2], 100 to 300 nM; in assay [3], below 100 nM; in assay [4], below 100 nM.
For the compound `COc1cc2nccc(Oc3ccc(NC(=O)c4cn(CC(F)F)c(C)c(-c5ccc(F)cc5C)c4=O)cc3F)c2nc1OC` [Compound 730, 1-(2,2-difluoroethyl)-N-[4-[(6,7-dimethoxy-1,5-naphthyridin-4-yl)oxy]-3-fluorophenyl]-5-(4-fluoro-2-methylphenyl)-6-methyl-4-oxopyridine-3-carboxamide], the IC50 in assay [1] was below 100 nM; in assay [2] it was 100 to 300 nM; in assay [3], below 100 nM; in assay [4], below 100 nM.
`COc1cnc2c(Oc3ccc(NC(=O)c4c(C)nc(C)c(-c5ccc(S(C)(=O)=O)cc5)c4O)cc3F)ccnc2c1` [Compound 694, N-[3-fluoro-4-[(7-methoxy-1,5-naphthyridin-4-yl)oxy]phenyl]-4-hydroxy-2,6-dimethyl-5-(4-methylsulfonylphenyl)pyridine-3-carboxamide]: the 50% inhibitory concentration (IC50) was below 100 nM in assay [1], above 300 nM in assay [2], above 300 nM in assay [3] and 100 to 300 nM in assay [4].
Turning to `COc1ccc(-c2c(C)ncc(C(=O)Nc3ccc(Oc4ccnc5cc(OC)cnc45)c(F)c3)c2O)c(OC)c1` [Compound 696, 5-(2,4-dimethoxyphenyl)-N-[3-fluoro-4-[(7-methoxy-1,5-naphthyridin-4-yl)oxy]phenyl]-4-hydroxy-6-methylpyridine-3-carboxamide], the IC50 in assay [1] was below 100 nM; in assay [2], below 100 nM; in assay [3], above 300 nM; in assay [4] it was 100 to 300 nM.
As for `COCCOc1cc2nccc(Oc3ccc(NC(=O)c4cc(C(C)=O)c(C)n(-c5ccc(F)cc5)c4=O)cc3)c2nc1OC` [Compound 757, 5-acetyl-1-(4-fluorophenyl)-N-[4-[[6-methoxy-7-(2-methoxyethoxy)-1,5-naphthyridin-4-yl]oxy]phenyl]-6-methyl-2-oxopyridine-3-carboxamide], the 50% inhibitory concentration (IC50) in assay [1] is below 100 nM; in assay [2], above 300 nM; in assay [3], below 100 nM; in assay [4], below 100 nM.
With `COc1cnc2c(Oc3ccc(NC(=O)c4c(C)nc(C)c(-c5ccc(F)cc5C)c4O)cc3)ccnc2c1` [Compound 682, 5-(4-fluoro-2-methylphenyl)-4-hydroxy-N-[4-[(7-methoxy-1,5-naphthyridin-4-yl)oxy]phenyl]-2,6-dimethylpyridine-3-carboxamide], the IC50 in assay [1], in assay [2], in assay [3] and in assay [4] was below 100 nM in each case.
As for `C=Cc1c(C)c(C(=O)Nc2ccc(Oc3ccnc4cc(OCCOC)cnc34)c(F)c2)c(=O)n(-c2ccc(F)cc2)c1C` [Compound 742, 5-ethenyl-N-[3-fluoro-4-[[7-(2-methoxyethoxy)-1,5-naphthyridin-4-yl]oxy]phenyl]-1-(4-fluorophenyl)-4,6-dimethyl-2-oxopyridine-3-carboxamide], the half-inhibitory concentration (IC50) in assay [1] is below 100 nM; in assay [2] it was above 300 nM; in assay [3], below 100 nM; in assay [4], below 100 nM.

The values above are taken from patent US12371428B2 (Exelixis, Inc., priority 2019, dated 2025).
